Data on 24 molecules can be found in US20070203098A1, “Pten Inhibitors” (priority 2004, published 2007).

Usually inhibition stands for the relative decrease from the control value, in per cent. A word on the pIC50: it is the negative decadic logarithm of the IC50, by convention in mol/L.

pIC50: −log10 of the molar value. “And” between values parts separate entries of the source, which are not always exact repeats. Identical values can stand only once. Like-named read-outs stand apart in the source and are kept apart here. Marks after values point to notes of the source that are not given here.

In assay [1] the test system is mouse aortic ring. Put plainly: In Vitro Aortic Ring Angiogenesis Assay. The assay is classed as cell-based. Particulars: 120 h; for activity at 40 µM: 5 days.
For assay [2], the system named is MEF PTEN wt. Put plainly: Migration Assay, MEF PTEN wt. The assay is classed as cell-based, mouse.
The test system of assay [3] is MEF PTEN null. Put plainly: Migration Assay, MEF PTEN null. The assay is classed as cell-based, mouse.
The target in assay [4] is T1, PTEN (Homo sapiens, UniProt P60484). Put plainly: PTEN Inhibition Assay: General Screening. In kind it is biochemical.
Assay [5] concerns the target T2, PTP1B (Homo sapiens, UniProt P18031).
T2 sequence (P18031 1-435): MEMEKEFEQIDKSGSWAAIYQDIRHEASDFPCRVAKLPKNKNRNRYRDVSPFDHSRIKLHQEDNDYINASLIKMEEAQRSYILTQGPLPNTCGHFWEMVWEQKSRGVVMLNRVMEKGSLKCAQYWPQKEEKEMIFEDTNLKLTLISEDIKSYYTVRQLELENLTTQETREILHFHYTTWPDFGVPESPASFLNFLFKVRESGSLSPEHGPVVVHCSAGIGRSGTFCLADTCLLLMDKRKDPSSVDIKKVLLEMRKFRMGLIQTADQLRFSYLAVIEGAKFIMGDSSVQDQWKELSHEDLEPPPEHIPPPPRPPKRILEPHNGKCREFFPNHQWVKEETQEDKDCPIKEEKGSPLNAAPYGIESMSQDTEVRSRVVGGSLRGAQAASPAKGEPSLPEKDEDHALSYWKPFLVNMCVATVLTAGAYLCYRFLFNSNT
The assay is described as follows: PTP1B Inhibition Assay: IC50 Determinations. The assay is classed as biochemical.

Assay [6] relates to human prostate cancer cells (PC-3). Put plainly: MTT Assay for Determining Toxicity, PC-3. In kind it is cell-based. Particulars: MTT, serum-free, 2 hours with compound, read-out: Viability IC50 PC-3.
Assay [7] has as its target T1, PTEN. Put plainly: PTEN Inhibition Assay: IC50 Determinations. In kind it is biochemical.
For assay [8], the system named is human brain endothelial cells (HBEC). Put plainly: MTT Assay for Determining Toxicity, HBEC. The assay is classed as cell-based. The following applies: Endothelial cell, MTT, serum-free, 2 hours with compound, read-out: Viability IC50 HBEC.
The test system of assay [9] is HBEC (Human Brain Endothelial Cells). The assay is described as follows: Wound Healing Assay. In kind it is cell-based.
Assay [10] has as its system human non-small cell lung cancer cells (H1299). Put plainly: MTT Assay for Determining Toxicity, H1299. The assay is classed as cell-based. Particulars: NCI-H1299, MTT, serum-free, 2 hours with compound, read-out: Viability IC50 H1299.
Where [11] appears, read: read-out: Branch (% of control).
The mark [12] stands for this setting: 250 uM, Table 27 isatins, read-out: % Inhibition @250 uM.
Setting [13] is: read-out: % Inhibition @ 250 uM.

T1 sequence (P60484 whole entry, species assumed): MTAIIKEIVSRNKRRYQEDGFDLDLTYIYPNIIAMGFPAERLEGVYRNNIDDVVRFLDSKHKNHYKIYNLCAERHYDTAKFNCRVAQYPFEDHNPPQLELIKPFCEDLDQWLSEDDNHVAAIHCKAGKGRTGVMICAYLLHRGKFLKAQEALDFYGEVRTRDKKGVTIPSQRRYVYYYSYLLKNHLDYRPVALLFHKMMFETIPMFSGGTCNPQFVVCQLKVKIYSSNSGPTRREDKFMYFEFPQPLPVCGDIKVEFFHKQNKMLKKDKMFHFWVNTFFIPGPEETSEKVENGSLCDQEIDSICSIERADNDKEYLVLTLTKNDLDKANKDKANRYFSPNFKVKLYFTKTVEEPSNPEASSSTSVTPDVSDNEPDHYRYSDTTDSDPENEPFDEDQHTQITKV

Regarding `O=c1cc(N2CCOCC2)oc2c(-c3ccccc3)cccc12` [LY294002, reference compound], the values for the activity at 40 µM in assay [1] (setting [11]) and in [1] (read-out: Stem (% of control)) were 0 to 0.8% and 0 to 2%, respectively.

Take `O=C1Nc2ccc([N+](=O)[O-])cc2C1=O` [SF1770-000, 5-nitroindoline-2,3-dione]: the “migration number, Average” value is 22.90 in assay [2] (125 uM, Table 4); 22.40 in assay [2] (250 uM, Table 4); 42.30 in assay [3] (125 uM, Table 4); 41.50 in assay [3] (250 uM, Table 4). In assay [4] (setting [12]), the inhibition at 250 µM was determined as 99.4%. In addition, the pIC50 was 4.79 in assay [5] (Table 29, read-out: PTP1B IC50); less than 3.00 in [6]; 5.66 in assay [7] (Table 29, read-out: PTEN IC50); less than 3.00 in assay [8]; 3.16 in [10]. For the same molecule, the “distance the cells have grown out” value in [9] (10 nM, 2 hrs) is 0.02667* millimeters; in assay [9] (10 nM, 4 hrs), 0.045* millimeters; in assay [9] (10 nM, 6 hrs), 0.065* millimeters; in assay [9] (10 nM, 24 hrs), 0.1483* millimeters; in [9] (50 nM, 2 hrs), 0.05 millimeters; in assay [9] (50 nM, 4 hrs), 0.06 millimeters. The “distance the cells have grown out” value is recorded as 0.075 millimeters in [9] (50 nM, 6 hrs); 0.2233* millimeters in [9] (50 nM, 24 hrs); 0.04 millimeters in assay [9] (250 nM, 2 hrs); 0.05167 millimeters in assay [9] (250 nM, 4 hrs); 0.06667 millimeters in [9] (250 nM, 6 hrs); 0.2017* millimeters in assay [9] (250 nM, 24 hrs). Besides, the “distance the cells have grown out” value in assay [9] (1000 nM, 2 hrs) is on record as 0.04 millimeters; in assay [9] (1000 nM, 4 hrs) it was 0.06167 millimeters; in assay [9] (1000 nM, 6 hrs), 0.07667 millimeters; in [9] (1000 nM, 24 hrs), 0.2417 millimeters. Further, in assay [9] (relative to no treatment control), the “HBEC migration across the wound, in words” value is “migrate faster”.

With `Cc1ccc(C(=O)Nc2ccc3c(c2)C(=O)C(=O)c2ccccc2-3)cc1` [SF1779-000], the activity at 5 µM was in the range of 112 to 138% in [1] (setting [11]) and 92 to 125% in [1] (read-out: Stem (% of control)). For the same molecule, the “migration number, Average” value is 20.60 and 18.00 in assay [2]; 47.30 and 43.50 in assay [3]. The inhibition at 250 µM in assay [4] (setting [13]) came to 99.8%. For the same molecule, the figures for the pIC50 in assay [5] and in assay [7] were 6.63 and 6.47, respectively.

Consider `O=C(COc1ccccc1)Nc1ccc2c(c1)C(=O)C(=O)N2` [SF1781-000], for which the inhibition at 250 µM in [4] (setting [12]) is 97.8%. Besides, the pIC50 is 6.53 in [5] (Table 29, read-out: PTP1B IC50) and 4.72 in [7] (Table 29, read-out: PTEN IC50).

For the molecule `O=C1C(=O)N(Cc2ccc(Cl)cc2Cl)c2ccc([N+](=O)[O-])cc21` [SF1783-000], the inhibition at 250 µM in [4] (setting [12]) was determined as 97.8%. Moreover, the pIC50 in assay [5] (Table 29, read-out: PTP1B IC50) is 5.96; in [7] (Table 29, read-out: PTEN IC50), 5.34.

`O=C(CCCc1ccccc1)Nc1ccc2c(c1)C(=O)C(=O)c1ccccc1-2` [SF1785-000]: the inhibition at 250 µM in assay [4] (setting [13]) was 97.9%. Also, the results for the pIC50 in [5] and in [7] were 5.00 to 6.00 and 5.30, respectively.

Consider `CCOC(=O)C(=O)Nc1ccc2c(c1)C(=O)C(=O)c1ccccc1-2` [SF1786-000], for which the inhibition at 250 µM in assay [4] (setting [13]) was found to be 99.8%. Further, the pIC50 is greater than 6.00 in assay [5] and 6.16 in assay [7].

Turning to `COc1ccccc1OCC(=O)Nc1ccc2c(c1)C(=O)C(=O)c1ccccc1-2` [SF1787-000], the inhibition at 250 µM in assay [4] (setting [13]) turned out to be 94.7%. In addition, the pIC50 in [5] (Table 29, read-out: PTP1B IC50) was greater than 6.00; in assay [7] (Table 29, read-out: PTEN IC50), 6.26.

Turning to `COc1cccc(OCC(=O)Nc2ccc3c(c2)C(=O)C(=O)c2ccccc2-3)c1` [SF1788-000], the inhibition at 250 µM in assay [4] (setting [13]) came to 96.9%. Also, the pIC50 is greater than 6.00 in assay [5] (Table 29, read-out: PTP1B IC50) and 6.39 in [7] (Table 29, read-out: PTEN IC50).

As to `Nc1ccc2c(c1)C(=O)C(=O)c1ccccc1-2` [SF1789-000], the inhibition at 250 µM in assay [4] (setting [13]) was 99%. The pIC50 in assay [5] was 5.53; in assay [7] it was 6.11.

Take `O=C(COc1ccc(Cl)cc1)Nc1ccc2c(c1)C(=O)C(=O)c1ccccc1-2` [SF1790-000]: the inhibition at 250 µM in assay [4] (setting [13]) was found to be 99.2%. Moreover, the values for the pIC50 in assay [5] and in [7] were 5.00 to 6.00 and 5.59, respectively.

Regarding `O=C(COc1ccccc1[N+](=O)[O-])Nc1ccc2c(c1)C(=O)C(=O)c1ccccc1-2` [SF1796-000], the inhibition at 250 µM in [4] (setting [13]) came to 99%. Besides, the pIC50 in assay [5] (Table 29, read-out: PTP1B IC50) was greater than 5.00; in assay [7] (Table 29, read-out: PTEN IC50), 6.19.

Regarding `O=C1C(=O)c2cc(NS(=O)(=O)c3cccs3)ccc2-c2ccccc21` [SF1798-000], the inhibition at 250 µM in [4] (setting [13]) came out at 93.6%. The figures for the pIC50 in assay [5] and in assay [7] were greater than 5.00 and 6.43, respectively.

In the case of `O=C(Nc1ccc2c(c1)C(=O)C(=O)c1ccccc1-2)c1cccs1` [SF1799-000], in [4] (setting [13]), the inhibition at 250 µM was 99.4%. For the same molecule, the pIC50 in assay [5] is greater than 5.00; in [7] it was 6.13.

As to `O=C1C(=O)c2cc(NCc3ccccc3)ccc2-c2ccccc21` [SF1800-000], in assay [4] (setting [13]), the inhibition at 250 µM was found to be 98%. Also, the pIC50 in [5] is greater than 5.00; in [7] it was 6.06.

On to `Cc1cc(C)cc(S(=O)(=O)Nc2ccc3c(c2)C(=O)C(=O)c2ccccc2-3)c1` [SF1801-000], for which the inhibition at 250 µM in assay [4] (setting [13]) was found to be 95.3%. Further, the pIC50 is greater than 5.00 in [5] and 6.00 in assay [7].

Consider `CC(C)(C)c1ccc(C(=O)Nc2ccc3c(c2)C(=O)C(=O)c2ccccc2-3)cc1` [SF1803-000], for which the inhibition at 250 µM in assay [4] (setting [13]) was found to be 83%. The pIC50 in [5] (Table 29, read-out: PTP1B IC50) was greater than 6.00; in assay [7] (Table 29, read-out: PTEN IC50), 4.84.

In the case of `O=C(O)CCC(=O)Nc1ccc2c(c1)C(=O)C(=O)c1ccccc1-2` [SF1804-000], the inhibition at 250 µM in assay [4] (setting [13]) is 98.6%. The pIC50 is 5.00 to 6.00 in assay [5] and 4.26 in assay [7].

For `O=C(O)C(=O)Nc1ccc2c(c1)C(=O)C(=O)c1ccccc1-2` [SF1806-000], the inhibition at 250 µM in [4] (setting [13]) is 98.1%. For the same molecule, the pIC50 in assay [5] was 5.00 to 6.00; in [7] it was 4.92.

In the case of `O=C1Nc2ccc(Br)cc2C1=O` [SF1814-000], the inhibition at 250 µM in assay [4] (setting [12]) came to 97.6%. For the same molecule, the pIC50 was 4.00 to 5.00 in assay [5] and 4.35 in assay [7].

With `O=C1Nc2ccc(Cl)cc2C1=O` [SF1816-000], the inhibition at 250 µM in [4] (setting [12]) came out at 95%. The pIC50 in [5] (Table 29, read-out: PTP1B IC50) is 4.00 to 5.00; in [7] (Table 29, read-out: PTEN IC50), 4.09.

`O=C1Nc2ccc(Br)cc2C1O` (stereo not drawn) [SF1818-000]: the inhibition at 250 µM in assay [4] (setting [12]) was 97.8%. Also, the pIC50 is greater than 5.00 in [5] (Table 29, read-out: PTP1B IC50) and 4.50 in [7] (Table 29, read-out: PTEN IC50).

For `O=C1Nc2ccc(I)cc2C1=O` [SF1819-000], the inhibition at 250 µM in assay [4] (setting [12]) worked out at 96%. Moreover, the pIC50 is greater than 5.00 in assay [5] (Table 29, read-out: PTP1B IC50) and 4.47 in assay [7] (Table 29, read-out: PTEN IC50).

In the case of `O=C1Nc2ccc(F)cc2C1=O` [SF1820-000], the inhibition at 250 µM in assay [4] (setting [12]) turned out to be 94.6%. Besides, the pIC50 in [5] (Table 29, read-out: PTP1B IC50) is 4.00 to 5.00; in assay [7] (Table 29, read-out: PTEN IC50) it was 4.21.
